Source: the supplement of paper PMC5579334
± gives the standard deviation of the averaged measurements.

Key:
HS-PSS [1] = assay: drug sensitivity score (DSS, CellTiter-Glo viability, 72 h) (DSS (dimensionless)); higher = more sensitive; extreme values may be limits of the assay
Outline: (§1)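 For this screen, 384-well plates were preprinted with each compound at five concentrations in 10-fold steps and seeded with MPNST cell lines or primary human Schwann cells at 750–1000 cells per well. Incubation lasted 72 h at 37 °C, 5% CO2, and CellTiter-Glo ATP luminescence, scaled between vehicle and positive-control wells and averaged over duplicates where available, served as viability. Logistic fits with four parameters were applied. Relative IC50 (censored at the top concentration) and drug sensitivity score derive from these fits, and percent inhibition is at the top concentration.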

HS-Sch-2 [2] = assay: as above
Outline: as §1

[3] = system: HSC1 (primary human Schwann cells); assay: as above
Outline: as §1

[4] = system: HSC2 (primary human Schwann cells); assay: as above
Outline: as §1

S1507-2 [5] = assay: as above
Outline: as §1

S462 [6] = assay: as above
Outline: as §1

ST8814 [7] = assay: as above
Outline: as §1

STS26T [8] = assay: as above
Outline: as §1

YST-1 [9] = assay: as above
Outline: as §1

HS-PSS [10] = assay: drug sensitivity score (DSS, CellTox-Green cytotoxicity, 72 h) (DSS (dimensionless)); higher = more cytotoxic; extreme values may be limits of the assay
Outline: (§2)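 MPNST cell lines and primary human Schwann cells were grown for 72 h at 37 °C in 384-well plates containing five 10-fold compound dilutions. CellTox-Green, added before seeding at a final 1:1000 dilution, gave fluorescence from DNA released by disrupted cells, and signals were scaled to vehicle and positive-control wells. Curves were fitted with a four-parameter logistic model. Drug sensitivity score and relative IC50 come from these fits, with IC50 censored at the top concentration.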

[11] = system: HSC1 (primary human Schwann cells); assay: as above
Outline: as §2

[12] = system: HSC2 (primary human Schwann cells); assay: as above
Outline: as §2

S1507-2 [13] = assay: as above
Outline: as §2

ST8814 [14] = assay: as above
Outline: as §2

STS26T [15] = assay: as above
Outline: as §2

HS-PSS [16] = assay: % inhibition of CellTiter-Glo viability at highest tested concentration (72 h), relative to DMSO and benzethonium chloride controls; higher = more inhibition
Outline: as §1

HS-Sch-2 [17] = assay: as above
Outline: as §1

[18] = system: HSC1 (primary human Schwann cells); assay: as above
Outline: as §1

[19] = system: HSC2 (primary human Schwann cells); assay: as above
Outline: as §1

S1507-2 [20] = assay: as above
Outline: as §1

S462 [21] = assay: as above
Outline: as §1

ST8814 [22] = assay: as above
Outline: as §1

STS26T [23] = assay: as above
Outline: as §1

YST-1 [24] = assay: as above
Outline: as §1

SMILES | drug sensitivity score (HS-PSS [1]) | drug sensitivity score (HS-Sch-2 [2]) | drug sensitivity score [3] | drug sensitivity score [4] | drug sensitivity score (S1507-2 [5]) | drug sensitivity score (S462 [6]) | drug sensitivity score (ST8814 [7]) | drug sensitivity score (STS26T [8]) | drug sensitivity score (YST-1 [9]) | drug sensitivity score (HS-PSS [10]) | drug sensitivity score [11] | drug sensitivity score [12] | drug sensitivity score (S1507-2 [13]) | drug sensitivity score (ST8814 [14]) | drug sensitivity score (STS26T [15]) | % inhibition (HS-PSS [16]) [%] | % inhibition (HS-Sch-2 [17]) [%] | % inhibition [18] [%] | % inhibition [19] [%] | % inhibition (S1507-2 [20]) [%] | % inhibition (S462 [21]) [%] | % inhibition (ST8814 [22]) [%] | % inhibition (STS26T [23]) [%] | % inhibition (YST-1 [24]) [%]
CC(C)C[C@H](NC(=O)[C@H](CCc1ccccc1)NC(=O)CN1CCOCC1)C(=O)N[C@@H](Cc1ccccc1)C(=O)N[C@@H](CC(C)C)C(=O)[C@@]1(C)CO1 [Carfilzomib] (max concentration tested 1000 nM) | 23.3 | 31.2 | 23 | 24.4 | 21.7 ± 1.4 | 29 ± 2 | 24.8 | 24.9 | 28.1 | 17.5 | 19.3 | 19.7 | 21.4 ± 2.3 | 21.7 | 21.5 | 99.9 | 102 | 103 | 101 | 102.9 ± 0.73 | 104 ± 1.3 | 102 | 103 | 101
O=NN(CCCl)C(=O)NCCCl [Carmustine] (max concentration tested 10000 nM) | 0.02 | 0 | 0 | 0 | 0 | 0 | 0 | 0 | 0 | 0 | 0 | 0 | 0.439 ± 0.62 | 0 | 0 | 10.6 | 2.86 | 0.41 | -7.14 | -5.49 ± 3.8 | -7.97 ± 1.3 | -3.77 | -1.28 | 1.73
COc1cc2c(Oc3ccc4[nH]c(C)cc4c3F)ncnc2cc1OCCCN1CCCC1 [Cediranib] (max concentration tested 1000 nM) | 1.71 | 0 | 0.0876 | 0 | 0.908 ± 0.43 | 0 | 0 | 0 | 0 | 0 | 0 | 0.638 | 0.112 ± 0.16 | 0.0254 | 0 | 20.1 | 1.32 | 12.1 | -10.7 | 19.9 ± 0.91 | -3.01 ± 12 | 8.47 | 4.34 | -10.3
Cc1ccc(-c2cc(C(F)(F)F)nn2-c2ccc(S(N)(=O)=O)cc2)cc1 [Celecoxib] (max concentration tested 10000 nM) | 0 | 0 | 0.156 | 0 | 0 | 0 | 0 | 0 | 0 | 0 | 0 | 0 | 0 | 0 | 0 | -9.36 | -1.87 | 11.3 | 3.55 | -6.68 ± 15 | 0.832 ± 4.7 | -6.53 | -2 | 4.7
O=C(O)CCCc1ccc(N(CCCl)CCCl)cc1 [Chlorambucil] (max concentration tested 10000 nM) | 0 | 0 | 0.621 | 0.471 | 0 | 0 | 0 | 0 | 0.78 | 0 | 0 | 0 | 0 | 0 | 0 | 3.62 | 1.59 | 24.7 | 21.9 | -14.4 ± 0.28 | -2.04 ± 1.9 | -14.6 | -3.28 | 18.1
Nc1nc(Cl)nc2c1ncn2[C@H]1C[C@H](O)[C@@H](CO)O1 [Cladribine] (max concentration tested 1000 nM) | 1.59 | 3.37 | 5.81 | 6.3 | 0.0035 ± 0.005 | 0.676 ± 0.56 | 0.423 | 3.75 | 2.87 | 0.65 | 4.05 | 5.38 | 4.43 ± 6.3 | 0.837 | 0.902 | 38.4 | 67.9 | 61.2 | 71.9 | 9.03 ± 3 | 24.7 ± 8.6 | 21.3 | 52.5 | 54.4
Nc1nc(Cl)nc2c1ncn2[C@@H]1O[C@H](CO)[C@@H](O)[C@@H]1F [Clofarabine] (max concentration tested 10000 nM) | 13 | 18.2 | 14.4 | 17.5 | 11 ± 1.9 | 17.2 ± 2.3 | 12.8 | 15.8 | 14.8 | 6.52 | 15.7 | 15.8 | 3.61 ± 1.3 | 8.58 | 6.47 | 76 | 82.1 | 79.4 | 85.7 | 88.7 ± 1.4 | 103 ± 1.1 | 98.8 | 87.7 | 83.9
CCN(CC)CCOc1ccc(/C(=C(/Cl)c2ccccc2)c2ccccc2)cc1 [Clomifene] (max concentration tested 10000 nM) | 6.39 | 5.21 | 2.36 | 6.36 | 6.57 ± 0.14 | 5.36 ± 0.27 | 6.53 | 6.27 | 1.77 | 5.71 | 0 | 7.92 | 4.48 ± 1.9 | 6.68 | 6.15 | 87.8 | 98.5 | 25.9 | 91.5 | 95.46 ± 0.71 | 77.6 ± 2.6 | 96.9 | 92.4 | 44.2
CC1(COc2ccc3c(c2)ncn3-c2ccc3cccc(N4CCC(N)CC4)c3n2)COC1 [Crenolanib] (max concentration tested 10000 nM) | 4.89 | 10.5 | 5.48 | 5.95 | 7 ± 2.5 | 5.16 ± 0.26 | 8.29 | 6.09 | 5.36 | 4.69 | 3.33 | 3.85 | 10.4 ± 4.5 | 7.03 | 5.47 | 101 | 101 | 84.7 | 85.3 | 95.6 ± 0.82 | 95.09 ± 0.94 | 95 | 95.3 | 101
C[C@@H](Oc1cc(-c2cnn(C3CCNCC3)c2)cnc1N)c1c(Cl)ccc(F)c1Cl [Crizotinib] (max concentration tested 1000 nM) | 2.17 | 0.41 | 2.09 | 1.21 | 0.701 ± 0.72 | 0.409 ± 0.58 | 0 | 0 | 0.85 | 0 | 0 | 0 | 1.38 ± 2 | 0 | 0 | 48.6 | 19.5 | 21.3 | 20.8 | 13.3 ± 2.3 | 13.3 ± 4.8 | 7.26 | 1.87 | 27.5
O=P1(N(CCCl)CCCl)NCCCO1 (stereo unspecified) [Cyclophosphamide] (max concentration tested 40000 nM) | 0 | 0 | 0 | 0 | 0 | 0 | 0 | 0 | 0 | 0 | 0 | 0 | 2.5 ± 3.5 | 0 | 0 | -15 | -7.77 | 8.38 | -1.29 | -7.33 ± 17 | -8.093 ± 0.056 | -3.77 | -1.7 | 3.85
Nc1ccn([C@@H]2O[C@H](CO)[C@@H](O)[C@@H]2O)c(=O)n1 [Cytarabine] (max concentration tested 10000 nM) | 10.2 | 9.14 | 10.8 | 14 | 6.29 ± 0.62 | 20 ± 0.39 | 12.1 | 13.8 | 13.2 | 5.69 | 5.58 | 4.6 | 0.68 ± 0.19 | 7.9 | 5.45 | 65.1 | 69.3 | 65.1 | 80.3 | 66.4 ± 5.8 | 96.4 ± 1.9 | 90.2 | 74.7 | 69.2
CC(C)(C)c1nc(-c2cccc(NS(=O)(=O)c3c(F)cccc3F)c2F)c(-c2ccnc(N)n2)s1 [Dabrafenib] (max concentration tested 2500 nM) | 0.78 | 0.66 | 4.42 | 5.89 | 0.291 ± 0.41 | 1.99 ± 0.58 | 1.19 | 3.99 | 0.2 | 0.89 | 0.888 | 0.888 | 0 | 0 | 0 | 26.6 | 24.5 | 39.9 | 31.7 | 17.6 ± 9.1 | 35.5 ± 1.5 | 33 | 31.1 | 17.6
CN(C)/N=N/c1[nH]cnc1C(N)=O [Dacarbazine] (max concentration tested 10000 nM) | 0 | 0 | 0 | 0 | 0 | 0.065 ± 0.092 | 0 | 1.17 | 0 | 0 | 0 | 0 | 0.828 ± 1.2 | 0 | 0 | 7.14 | 7.05 | 9.74 | -1.82 | -5.83 ± 6.6 | 8.66 ± 8.8 | 3.31 | 23.5 | -4.08
